# Measured values taken from patent US8969249B2, “Synthesis and biological activity of bicyclic ABA analogs” (National Research Council of Canada, priority 2004, dated 2015).
# Legend:
# [1] = system: suspension-cultured cells of maize (Black Mexican Sweet); assay: growth inhibition assay using suspension-cultured corn cells; type: cell-based; details: for inhibition of growth of suspension-cultured maize cells: dose-dependent over concentration range 0.1-10.0 μM
# Description: In yet another embodiment, a process for inhibiting plant cell growth using the bicyclic ABA and analogs of the present invention is described. The ability of bicyclic ABA and analogs of the present invention to inhibit plant cell growth may be assayed with a growth inhibition assay. In one assay, suspension-cultured corn cells are used in a well characterized experimental system that has been useful for comparing the biological activity and metabolism of ABA and ABA analogs (6).
# The growth inhibition assay using suspension-cultured corn cells is a well characterized experimental system that has been very useful for comparing the biological activity and metabolism of ABA and ABA analogs (6).
# Maize cell cultures were treated as described by Balsevich et. al. (6). The cultures were incubated on a rotary shaker for 4 days, and the cells were separated from the medium by vacuum filtration and weighed immediately. The effect of ABA and bicyclic ABA on cell growth was determined at various concentrations (0-10 μM) by calculating the percentage increase in fresh weight [(final weight×100/initial weight)−100)]. Measurements were performed in triplicate and average values were normalized to a control (untreated) value of 100%.
# [2] = system: Arabidopsis thaliana (Columbia wild type) seeds; assay: seed germination inhibition assay; type: in vivo; details: for germination index: lowest concentration of 0.33 μM
# Experimental: (§1) In yet an additional embodiment, bicyclic ABA and analogs of the present invention may be used in a process for inhibiting seed germination. In one embodiment, bicyclic ABA is used in a germination assay of Arabidopsis thaliana (Columbia wild type) seeds over a wide range of concentrations (0.33-33 μM). Similar treatments were performed for ABA [1] (both enantiomers) to allow for a direct comparison between ABA and bicyclic ABA (both enantiomers). The results are expressed in terms of germination indices, which summarize the rate and extent of germination over the time of the experiment at a given concentration. […] At the lowest concentration of 0.33 μM, the germination index for (+)-ABA (1) was almost 0.4, compared with less than 0.1 in the case of (+) bicyclic ABA [8].
# as §1, with “Bicyclic” for “In yet an additional embodiment, bicyclic”, “produced using the process” for “and analogs”, “was also studied” for “may be used in a process for inhibiting seed germination. In one embodiment, bicyclic ABA is used”, “μM) (FIG. 7).” for “μM).”, “[1]” for “(1)”, “[8]. […] It was only active at concentrations of ≧1 μM.” for “[8].”
# Arabidopsis thaliana (Columbia wild type) seed germination inhibition studies were performed as described by Cutler et. al. (23). The treatments were performed in duplicate with 50 seeds per plate and incubated at 24° C. with 16 hr days and 8 hr nights for the duration of the test (7 days).
compound,measurement,setting,value
"CC1=CC(=O)CC(C)(C)C1(O)/C=C/C(C)=C\C(=O)O (single isomer, unassigned; (+)) [(+)-ABA, abscisic acid, reference compound]",inhibition of growth of suspension-cultured maize cells,[1],inhibited the growth
same,germination index,[2]; 7-day test,~0.4
"CC(=C/C(=O)O)/C=C/[C@@]1(O)c2ccccc2C(=O)CC1(C)C [(+)-[8], (2Z,4E)-5-((1S)-1-Hydroxy-2,2-dimethyl-4-oxo-1,2,3,4-tetrahydro-naphthalen-1-yl)-3-methyl-penta-2,4-dienoic acid]",inhibitory activity (cell growth) relative to (+)-ABA,"[1]; BMS maize suspension cells, 4 days, FIG. 6",~10 fold
same,inhibition of growth of suspension-cultured maize cells,[1],inhibited the growth
same,germination inhibition compared with comparator (in words),"[2]; (+)-[8] versus (+) ABA, (−)-[8] versus (+)-[8]",more effective germination inhibitor than (+) ABA
same,inhibition of seed germination (in words),"[2]; all concentrations (0.33-33 μM), 7-day test period",highly effective
same,germination index,[2]; 7-day test,less than 0.1
"abscisic acid [(−) enantiomer of ABA [1], reference compound]",concentrations at which active/effective in inhibiting germination,"[2]; tested 0.33-33 μM, 7-day test",≥ 3.33 µM
